Key:
A549 NSCLC cells = assay: NSCLC cell proliferation in vitro (MTS assay); format: cell-based, human
H1975 NSCLC cells = assay: NSCLC cell proliferation in vitro (MTS assay); format: cell-based, human; details: Homo sapiens, NCI-H1975, SERD alone, 72 hours, estrogen-depleted phenol red-free medium with 5% DCC-FBS, read-out: IC50 for inhibition of NSCLC cell proliferation, H1975
Protocol: (§1) Cell culture: Human breast and non-small cell lung cancer cells (MCF7, ZR75-1, MDAMB231, A549, H23, H1975, […]) were from ATCC. MCF7-HER2 were a kind gift of Dr. Dennis Slamon (23). Cell lines were routinely maintained in RPMI 1640 or DMEM medium with 10% fetal bovine serum (FBS) (Sigma-Aldrich) and 1% Antibiotic-Antimycotic solution 100× (Mediatech, Herndon, Va.). When indicated, for estrogen-free conditions, media was changed 48 h before experiments to phenol-red free RPMI 1640/DMEM with 1% dextran-coated, charcoal-treated (DCC)-FBS (24,25). Otherwise experiments were performed in phenol-red free RPMI 1640/DMEM medium with 5% DCC-FBS.
(§2) Cell proliferation assays: breast and lung tumor cells (between […]) were plated in 96 well plates using their respective medium with 10% FBS. For experiments using estradiol-17β, cells were rinsed with PBS and incubated with phenol redfree medium with 1% DCC-FBS for 48 hours as described before (24,25). Cells were then treated with different concentrations of SERDs ranging between 0.0001-100 μM. […] Cell counts and viability tests (Trypan blue) were done every 24 hr for 3 days. After 72 hr, proliferation was assessed with the MTS Assay CELLTITER 96® Aqueous Cell Proliferation Assay (Promega) or the Cell Proliferation ELISA, BrdU colorimetric assay (Roche). For the MTS, the absorbance of the formazan product was measured at 490 nanometer using the iMARK microplate reader from BIORAD. The BrdU ELISA assay is based on detection of BrdU incorporated into the genomic DNA of proliferating cells and an anti-BrdU antibody, the reaction product was quantified by measuring the absorbance at 370 nanometers using iMARK microplate reader from BIORAD. Cell numbers were also assessed initially by cell counts to confirm MTS/BrdU data. Experiments were done at least three times to confirm data.

H2122 NSCLC cells = assay: NSCLC cell proliferation in vitro (MTS assay); format: cell-based, human; details: Homo sapiens, NCI-H2122, SERD alone, 72 hours, estrogen-depleted phenol red-free medium with 5% DCC-FBS, read-out: IC50 for inhibition of NSCLC cell proliferation, H2122
Protocol: as §1, §2

[1] = test system: MCF-7 breast cancer cells; assay: MCF-7 breast cancer cell proliferation (BrdU ELISA) in presence of estradiol-17β; format: cell-based, human; details: Homo sapiens, MCF7; 72 hrs in the presence of 1 nM estradiol-17β, BrdU ELISA; read-out: IC50 for inhibition of cell proliferation, MCF-7
Protocol: In experiments to assess potential proliferative effects of novel estrogen receptor ligands, human breast cancer cells were grown in phenol red-free, estrogen-free media with 1% dextran-coated charcoal-treated (DCC)-fetal bovine serum (FBS) for 48 hrs (15,44), then treated with either 1 μM or 50 μM doses of estrogen receptor antagonists in the presence of 1 nM estradiol-17β. Cell counts and viability tests (Trypan blue) were done every 24 hr for 3 days. After 72 hr, proliferation was assessed using the BrdU Cell proliferation ELISA (Roche). Cell numbers were also assessed initially by cell counts to confirm ELISA data. Each antiestrogen was tested at least in three different experiments.
In order to assess the antitumor action of novel estrogen receptor antagonists, we cultured human MCF-7 breast cancer cells with known expression of ERα. Cells were grown in 1% DCC-FBS for 48 hr and then treated with vehicle control or either 1 μM or 50 μM concentrations of antiestrogens JD 101-160 or the pure antiestrogen fulvestrant (FAS), all in the presence of 1 nM estradiol-170. […] Shown in FIG. 2A are results from MCF-7 cells grown in 1% DCC-FBS for 48 hr and then treated with vehicle control, 1 nM estradiol-170 and either 1 μM or 50 μM concentrations of antiestrogens JD 101-160 or the known pure antiestrogen fulvestrant (FAS) in the presence of 1 nM estradiol-170. Cell proliferation is expressed as percentage of that determined in the 1 nM estradiol-170-treated control group.
as §2

[2] = test system: MAPK: ERK-1 (p44) and ERK-2 (p42); assay: Estrogen-induced MAPK phosphorylation, Western blot in MCF-7 cells; format: cell-based, human; details: MCF-7 parent cells, 1 nM estradiol (E2); antagonists pre-incubated at 1000 nM; FIG. 7A
Protocol: ERD inhibition of phosphorylation of MAPK, at both extracellular signal-regulated kinases ERK-1 (p44) and ERK-2 (p42) and downstream effects. […] Thus, we measured estrogen-induced phosphorylation of MAPK by established methods (9,15,16). Briefly, MCF-7 parental cells were estrogen deprived for 48 hrs, then treated with 1 nM estradiol-1713 in the presence of new compounds (10 nM-10 μM) to be tested for antagonist activity. After treatments, cell lysates were separated by SDS-PAGE followed by Western blot using a polyclonal antibody directed to phospho-p44/p42 MAP kinase (Thr202/Tyr204) (Cell Signaling). Immunodetection with antibody against total p44/p42 (Cell Signaling) was done as a control for gel loading. […] ERD S15 was as effective as fulvestrant in inhibiting the rapid estrogen-induced MAPK phosphorylation in breast tumor cells in vitro. […] E2 but not vehicle (CN) induced rapid phosphorylation of ERK-1 (p44) and ERK-2 (p42). This activation was prevented when cells were pre-incubated with 1000 nM ICI 182,780 (ICI; Faslodex) or 1000 nM compound S15 in the presence of estradiol (E2).

MCF-7 parental cells = details: MCF-7 parental xenografts in nude mice; cited from earlier work
MCF-7/HER-2 cells = details: MCF-7 cells with HER2-overexpression, xenografts in nude mice; cited from earlier work
Rb serine-780 = Rb serine-780 phosphorylation, Western blot in A549 cells; format: cell-based, human; details: 24 h, 1% DCC-FBS, 1 nM E2, 1 nM androstenedione, 10 nM testosterone, 10 μM letrozole, 100 nM palbociclib, FIG. 4C
Protocol: FIG. 4C. […] Cells were treated 24 h in phenol red-free RPMI with 1% DCC-FBS with vehicle control (CON), 1 nM estradiol-17β (E2), 1 nM androstenedione (And), 10 nM testosterone (Tes), 10 μM letrozole (AI), 100 nM palbociclib (Plbo) or both Plbo+AI. After 24 hr, cell lysates subjected to Western blot with antibody to phosphoserine-780 Rb or total Rb (Cell Signaling) (20). GAPDH is used as loading control.
To investigate the antitumor efficacy of CDK 4/6 inhibitor palbociclib in NSCLC cells, we assessed the effects of palbociclib alone and in combination with the hormonal therapeutic letrozole (see FIGS. 4B and 5B). The potential mechanism of action of palbociclib and letrozole in NSCLC cells was investigated by assay of the effects of these agents alone and combined on phosphorylation of Rb serine-780

cyclin D1 = assay: Cyclin D1 expression, Western immunoblot in A549 NSCLC cells; format: cell-based, human; details: 24 h, 1% DCC-FBS, letrozole 10 μM, FIG. 5B
Protocol: FIG. 5B. […] Cells were treated 24 h in phenol red-free RPMI with 1% DCC-FBS. Control (Con), estradiol-17β (E2; 1 nM), androstenedione (And; 1 nM), testosterone (Tst; 10 nM), letrozole (AI; 10 μM) and palbociclib (Plbo; 1 μM) were used in this experiment. GADPH is used as a loading control (20).

Row | SMILES | IC50 (A549 NSCLC cells; Homo sapiens, A549, SERD alone, 72 hours, estrogen-depleted phenol red-free medium with 5% DCC-FBS, MTS assay, read-out: IC50 for inhibition of NSCLC cell proliferation, A549) [nM] | IC50 (H1975 NSCLC cells) [nM] | IC50 (H2122 NSCLC cells) [nM] | IC50 [1] [nM] | phosphorylation of MAPK (ERK-1 p44 and ERK-2 p42) [2] | growth of parent tumors (xenografts) (MCF-7 parental cells) | sensitivity of MCF-7/HER-2 xenografts (MCF-7/HER-2 cells) | inhibition of NSCLC cell proliferation (A549 NSCLC cells; A549, 72 hrs, single agents and palbociclib (10 or 100 nM)/letrozole (10 μM), FIG. 6B) | phosphorylation of Rb serine-780 (Rb serine-780) | cyclin D1 expression (cyclin D1)
1 | C[C@]12CC[C@@H]3c4ccc(O)cc4C[C@@H](CCCCCCCCC[S+]([O-])CCCC(F)(F)C(F)(F)F)[C@H]3[C@@H]1CC[C@@H]2O (stereo partly shown) [FULVEST, fulvestrant, reference compound] | 4160 | 1880 | 1290 | 1110 | prevented | suppressed | partially sensitive | – | – | –
2 | N#Cc1ccc(C(c2ccc(C#N)cc2)n2cncn2)cc1 [letrozole] | – | – | – | – | – | – | – | dose-dependent inhibition | block | reduces cyclin D1 expression

Reference: patent US10918648B2, “Estrogen receptor modulator combinations” (The Regents of the University of California, priority 2016, dated 2021)
